Data from patent US20070207993A1, “Molybdenum carbonyl complexes for treating rheumatoid arthritis and other inflammatory diseases” (Alfama - Investigacao e Desenvolvimetno De Productos …, priority 2005, published 2007).

Tested on: Wistar rats
Assay: Adjuvant arthritis in rats
Format: in vivo, rat
Experimental: Adjuvant arthritis was induced in 11 week old, outbred Wistar rats (376-400 g) by a single intradermal injection into the subplanatar area of the right hind paw of 100 microliter of a 10 mg/ml suspension of mycobacterium butyricum in incomplete Freund's Adjuvant. The disease was induced in 3 groups of rats each consisting of 7 animals. […] Groups 2 and 3 received daily applications of methylene chloride (positive control) (500 mg/kg), or Compound I.1 (80 mg/kg), respectively. Both compounds were administered in olive oil by oral gavage. Treatment was initiated at day 10 after disease induction when signs of arthritis began to appear in the injected footpad as well as in the contralateral footpad. […] All animals were evaluated daily by determination of body weight, foot pad volume (performed by a water displacement method using a plethysmometer, Ugo Basile, Comerio, Italy), ankle circumference (using a flexible measuring tape) and arthritic index that is based on levels of erythema and oedema of the entire paws and digits, number of joints involved, spondilosis, lesions on tail, movement capacity and infections (0=normal, 1=swelling and/or redness of injected paw; 4=severe arthritis of the entire injected paw and digits; +2=2 joints are involved; +3=>2 joints are involved; +1=infection of paws; +1=tail lesions; +1=movement incapacity; +1=spondilosis). […]

Compound: O=[C][Mo]([Br])([C]=O)([C]=O)([C]=O)[C]=O [Compound I.1]
- paw volume, paw circumference and arthritis index (all measured parameters) versus positive control (Wistar rats, 80 mg/kg daily oral gavage in olive oil, day 10 to 29, methylene chloride at 500 mg/kg): superior to methylene chloride
- effect in control rats with severe arthritis treated from day 20 on (three rats of the control group, treated for 10 days): signs of improvements
